Test results reported in paper PMC5004293, “Characterization of FRM-36143 as a new γ-secretase modulator for the potential treatment of familial Alzheimer’s disease” (Alzheimer's Research & Therapy, 2016).

Tests used:
DHCR24 [1] = conditions: cited from earlier work
[2] = set-up: method as in PMID 24085193; conditions: animals; takes 12–14 weeks to appear; cited from earlier work
DHCR24 [3] = target: T1, DHCR24 (Homo sapiens, UniProt Q15392); assay: Desmosterol assay in HepG2 cells; format: cell-based
T1 construct: endogenous in cells; host or cells: HepG2 cells
T1 sequence (Q15392 23-516): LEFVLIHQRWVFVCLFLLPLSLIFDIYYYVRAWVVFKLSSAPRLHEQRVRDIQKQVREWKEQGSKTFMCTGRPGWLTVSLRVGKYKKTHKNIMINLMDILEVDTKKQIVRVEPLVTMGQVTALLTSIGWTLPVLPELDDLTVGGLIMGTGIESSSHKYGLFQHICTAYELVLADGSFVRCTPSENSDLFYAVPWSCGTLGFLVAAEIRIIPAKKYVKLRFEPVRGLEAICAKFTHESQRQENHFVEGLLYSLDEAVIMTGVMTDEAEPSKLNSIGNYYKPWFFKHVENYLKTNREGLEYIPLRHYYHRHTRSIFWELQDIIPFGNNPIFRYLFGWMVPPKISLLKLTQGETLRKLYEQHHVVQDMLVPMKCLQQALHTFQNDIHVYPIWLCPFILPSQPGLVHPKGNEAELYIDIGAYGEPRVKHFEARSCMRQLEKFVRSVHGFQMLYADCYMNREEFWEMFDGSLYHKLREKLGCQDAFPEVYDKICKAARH
Procedure: HepG2 cells were grown in Eagle's minimal essential medium (EMEM) containing 10 % fetal bovine serum, penicillin (50 U/mL), and streptomycin (50 ug/mL) and plated at a density of 1 million cells/well in 6-well plates for the experiment. Four to five days after plating, the cells were washed with Hank’s balanced salt solution (HBSS), and compound treatment applied for 2 h in HBSS. At the end of the treatment, cells were collected, washed with PBS, and pelleted. Sterols were extracted from the cell pellet by adding 100 μL PBS and 3 mL ethylacetate (containing an internal standard of 1 mg/mL d-cholesterol). Tubes were vortexed for 20 min and centrifuged at 2000 × g for 20 min at room temperature. The organic phase was dried under a stream of nitrogen at 40 °C and the samples reconstituted in 65 % methanol. Liquid chromatography-tandem mass spectrometry (LC-MS/MS) analysis was performed using a Shimadzu 20-series UFLC (Shimadzu, Kyoto, Japan) and an API 5500 (Applied Biosystems, Foster City, CA, USA) with a Hypersil GOLD column (100X2.1 mM; Thermo Fisher).

Notch processing = assay: Notch reporter assay (HeLa 6xCBF1-Luc, NotchΔE); format: cell-based, human; conditions: overnight
Procedure: The wild-type CBF1 binding element was cloned in front of the SV40 promoter-driven luciferase reporter construct of pGL3pro (Promega, Madison, WI, USA) using the following oligonucleotides: • CBF1 Fw (5’→3’): […] • CBF1 Rv (5’→3’): […]
Oligonucleotides were phosphorylated using T4 polynucleotide kinase and annealed (by heating to 90 °C and cooling to room temperature in a buffer containing 0.1 M NaCl). Plasmid pGL3pro was cleaved with BglII and dephosphorylated using alkaline phosphatase. The oligonucleotide pair was then ligated using T4 ligase with the linearized plasmid DNA. A clone containing 6 copies of the CBF1 element in front of the SV40 promoter was chosen. The 6xCBF1-RE/SV40 promoter was excised from pGL3 using XhoI and HindIII, and the fragment transferred to the pGL4.17 [luc2/Neo] vector (Promega) was opened with the same restriction enzymes.
The full length human Notch in plasmid pCMV6-XL5 (Origene, Rockville, MD, USA) was used to amplify a truncated form of Notch (NotchΔE) containing the 20-amino-acid (a.a.) signal sequence followed by 5 a.a. […]
HeLa cells stably transfected with the 6xCBF1-Luc reporter were transiently transfected with the NotchΔE construct (4 μg DNA/10^6 cells) using Lipofectamine 2000 (Thermo Fisher, Waltham, MA, USA) in 6-well plates. […] Chemiluminescence was then read on an EnVision plate reader (Perkin Elmer).

Aβ42 = target: T2, Aβ42 (Homo sapiens, UniProt P05067); assay: Aβ aggregation assay (thioflavin T); conditions: 10 μM peptide, 25 °C, 18 h
T2 construct: purchased AnaSpec
T2 sequence (P05067 672-713 limits assumed): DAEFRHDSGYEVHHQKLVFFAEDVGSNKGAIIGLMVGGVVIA
Procedure: Aβ peptides (AnaSpec, Fremont, CA, USA) were dissolved at a concentration of 1 mg/mL in hexafluoroisopropanol (HFIP). Peptides were then mixed at different molar ratios. HFIP was evaporated in a SpeedVac without heating for 15 min. Peptides and mixtures were kept on ice and reconstituted in 50 mM Tris–HCl, 1 mM EDTA. Peptides (final concentration: 10 μM) were added to thioflavin T (final concentration: 2.5 μM; AnaSpec) in a black 96-well plate. Aggregation was monitored on a SpectraMax M5 plate reader (Molecular Devices, Inc.) at a constant temperature of 25 °C using excitation/emission of 440 nm/480 nm. Readings were recorded in triplicate every 10 min for a period of 18 h.

COc1cc(/C=C2\CCCN([C@@H](C)c3ccc(F)cc3)C2=O)ccc1-n1cnc(C)c1 [E2012]
Inhibition of DHCR24 (DHCR24 [1]): inhibit
Lenticular opacity [2]: cause lenticular opacity
Desmosterol induction (change from DMSO) (DHCR24 [3]; 1 μM): ~ 60 fold
IC50 (DHCR24 [3]; desmosterol accumulation, 2 h): 63 nM

COc1nc(/C=C/c2nc3n(n2)CCC[C@H]3c2ccccc2C(F)(F)F)ccc1-n1cnc(C)c1 [E2212]
DHCR24 off-target activity (DHCR24 [1]): did not have this off-target activity

C[C@H](NC(=O)[C@@H](O)c1cc(F)cc(F)c1)C(=O)N[C@@H]1C(=O)N(C)c2ccccc2-c2ccccc21 [LY-411,575, reference compound]
IC50 (Notch processing): 0.9 nM

Aβ42: Aβ peptide (AnaSpec) used in the aggregation assay
Increase in aggregates over time (thioflavin T fluorescence) (Aβ42): > 15 fold
